For test [1], the system named is normal lung fibroblasts (NLF). Nature of the test: Kinase (signaling) inhibitor treatment of NLF, Western blotting. Type of test: cell-based, human. Also noted: key to Collagen / Tenascin-C / ASMA / Ph-ERK / Ph-JNK / Ph-Akt: a decrease ↓; an increase ↑; no effect —. Particulars: for ASMA expression / Akt activation / ERK activation / JNK activation / collagen expression / tenascin-C expression: 10 μM inhibitor, result in words; for ASMA / Ph-Akt / Ph-ERK / Ph-JNK / Collagen / Tenascin-C: inhibitor 10 μM, serum-free medium, Western blotting; for ASMA / Ph-Akt / Ph-ERK / Ph-JNK: cell layer; for Collagen / Tenascin-C: culture medium. From the text: (§1) Fibroblasts were derived from lung tissue obtained at autopsy from scleroderma patients (SLF) and from age-, race-, and sex-matched normal subjects (NLF) and cultured as previously described (44). Cells were used in passages 2-4. The group of scleroderma patients fulfilled the criteria of American college of Rheumatology for the diagnosis of scleroderma with lung involvement. Normal human lung tissue was obtained from the Brain and Tissue Bank for Developmental Disorders (Baltimore, Md.) or from the National Disease Research Interchange (Philadelphia, Pa.). Scleroderma lung tissue was obtained from the Division of Pathology and Laboratory Medicine at the Medical University of South Carolina (MUSC). The study was approved by the Institutional Review Board for Human Subject Research at the MUSC.
(§2) U0126 (MEK inhibitor), SP600125 (JNK inhibitor), LY294002 (PI3 kinase inhibitor) and Akt inhibitor VIII were purchased from Calbiochem and dissolved in DMSO (mM). Cells in 6-well plates were treated with 10 μM of inhibitors in serum-free medium for 6 h (U0126) or 24 h for the other inhibitors prior to the harvesting of cells and medium.
(§3) Cell layers were harvested in boiling SDS-PAGE sample buffer; medium was dialyzed, lyophilized, and resuspended in sample buffer. Aliquots of culture medium or of cell layer representing material derived from the same number of cells was probed using the following primary antibodies and appropriate secondary antibodies. Culture medium: goat anti-human collagen I (AB758P) and rabbit anti-human tenascin-C (AB19011) from Chemicon International (Temecula, Calif.). Cell layer: rabbit antibodies against PKCα (sc-208), PKCε (sc-214), activated JNK (sc-12882), activated Akt Thr 308 (sc-166646R) and caveolin-1 (sc-894) from Santa Cruz Biotechnology (Santa Cruz, Calif.); rabbit antibodies against ERK 1/2 (9102), activated ERK 1/2 (9106), JNK (9252), Akt (9272), MEK 1/2 (9122), and activated MEK 1/2 (9121) from Cell Signaling (Beverly, Mass.); mouse monoclonal anti-ASMA (clone 1A4) from Sigma (Saint Louis, Mo.), and mouse monoclonal anti-actin (MAB1501) from Chemicon International (Temecula, Calif.).
(§4) Immunoreactive bands were quantified by densitometry using the Image 1.32J NIH software. For statistical analysis the raw densitometric data were processed and analyzed using the Prism 3.0 (GraphPad Software Inc.) statistical analysis software.

The test system of test [2] is scleroderma lung fibroblasts (SLF). Nature of the test: Kinase (signaling) inhibitor treatment of SLF, Western blotting. Type of test: cell-based, human. Set-up: key to Collagen / Tenascin-C / ASMA / Ph-ERK / Ph-JNK / Ph-Akt: a decrease ↓; an increase ↑; no effect —. Particulars: for ASMA expression / Akt activation / ERK activation / JNK activation / collagen expression / tenascin-C expression: 10 μM inhibitor, result in words; for ASMA / Ph-Akt / Ph-ERK / Ph-JNK / Collagen / Tenascin-C: inhibitor 10 μM, serum-free medium, Western blotting; for ASMA / Ph-Akt / Ph-ERK / Ph-JNK: cell layer; for Collagen / Tenascin-C: culture medium.
Description: as §1, §2, §3, §4
For orientation: In western blotting, separated proteins are transferred to a membrane and probed.

The subject of test [3] is eNOS. Particulars: endothelial cells; Bernatchez et al. (4); cited from earlier work.
Test [4] has as its system normal lung fibroblasts (NLF). The experiment in a line: Collagen and ASMA expression in NLF treated with CSD and its subdomains. Particulars: for ASMA expression: peptides at 1, 3, and 5 μM. Type of test: cell-based, human. On the procedure:
(§5) The indicated cell types (NLF and SLF) were cultured as described with 0, 1, 3, or 5 μM of the indicated peptides. Collagen in the medium and ASMA and actin (loading control) in the cell layer were detected by Western blotting. Blots were quantified densitometrically. The level of collagen and ASMA in cells treated with no peptide (divided by the level of actin) was set to 100 arbitrary units. Because SLF express higher levels of collagen and ASMA than do NLF, 100 arbitrary of collagen in SLF is equivalent to 195 arbitrary units of collagen in NLF and 100 arbitrary units of ASMA in SLF is equivalent to 255 arbitrary units of ASMA in NLF. The data presented are the average of the densitometric quantification of three independent experiments.
(§6) To compare the activity of CSD to its subdomains, five subdomains [A (82-88 amino acids), B (89-95), C (96-101), AB (82-95) and BC (89-101)] were synthesized in fusion with the Antennapedia internalization sequence and added to culture medium at 1, 3, and 5 μM. […] Very different results were obtained when examining ASMA expression.

Test [5] deals with scleroderma lung fibroblasts (SLF). Nature of the test: Collagen and ASMA expression in SLF treated with CSD and its subdomains. It is filed as cell-based, human. Particulars: for inhibition of collagen expression / inhibition of ASMA expression: 5 μM peptide; for ASMA expression: peptides at 1, 3, and 5 μM. On the procedure: as §5, §6
The mark [6] stands for this setting: any concentration tested (1, 3, and 5 μM).

Entries after “also recorded” stand apart in the source; their conditions may differ. Where no end group is shown, it is not given here.

For `O=c1[nH]c2ccccc2n1C1CCN(Cc2ccc(-c3nc4cc5[nH]cnc5cc4nc3-c3ccccc3)cc2)CC1` [Akt inhibitor VIII], in test [1], the ASMA expression result is “no effect”, the Akt activation entry is given as “inhibited”, the ERK activation result is “enhanced” and the JNK activation result was “no effect”. For the same molecule, in test [1], the collagen expression entry was “inhibited”, the tenascin-C expression result is given as “inhibited”, the ASMA entry is listed as “—” and the Ph-Akt result is “↓”. In test [1], the Ph-ERK result is given as “↑”, the Ph-JNK result was “—”, the Collagen entry is reported as “↓” and the Tenascin-C result is recorded as “↓”. Also, in test [2], the ASMA expression result is “inhibited”, the Akt activation entry is “inhibited”, the ERK activation entry is on record as “enhanced” and the JNK activation result is “enhanced”. In test [2], the collagen expression entry was “no effect”, the tenascin-C expression entry is “no effect”, the ASMA result is reported as “↓” and the Ph-Akt result is “↓”. Further, in test [2], the Ph-ERK entry is “↑”, the Ph-JNK result is “↑”, the Collagen entry was “—” and the Tenascin-C entry is recorded as “—”.
“AB: CSD subdomain AB (82-95) synthesized in fusion with the Antennapedia internalization sequence (DGIWKASFTTFTVT; also: fused to Antennapedia internalization sequence; UniProt Q03135 82-95, looked up, fragment)”: in test [3], the eNOS activity entry is listed as “also inhibited”. For the same molecule, the “inhibition of collagen expression” value in test [4] (5 μM peptide) and in test [5] was “approximately 50%” in each case. For the same molecule, the ASMA expression entry in test [4] and in test [5] was “did not inhibit” in each case.
As to “B: CSD subdomain B (89-95) synthesized in fusion with the Antennapedia internalization sequence (FTTFTVT; also: fused to Antennapedia internalization sequence; UniProt Q03135 89-95, looked up, fragment)”, the eNOS activity entry in test [3] is “most strongly inhibited”. The collagen expression result in test [4] (setting [6]) and in test [5] (setting [6]) was “did not inhibit” each time. In addition, the ASMA expression result in test [4] and in test [5] was “did not inhibit” throughout.
Regarding `Oc1c2ccccc2c2c3c(cccc13)N=N2` [SP600125], in test [1], the ASMA expression entry was “no effect”, the ASMA entry was “—”, the Ph-Akt result is “↓” and the Ph-ERK entry is “↓”. Moreover, in test [1], the Ph-JNK result was “↓”, the Collagen result is given as “↓” and the Tenascin-C result is “↓”. In test [2], the ASMA entry is recorded as “↓”, the Ph-Akt result is given as “↓”, the Ph-ERK result is reported as “↓” and the Ph-JNK entry is “↓”. For the same molecule, in test [2], the Collagen entry is recorded as “↓” and the Tenascin-C entry was “↓”.
On to “A: CSD subdomain A (82-88 amino acids) synthesized in fusion with the Antennapedia internalization sequence (DGIWKAS; also: fused to Antennapedia internalization sequence; UniProt Q03135 82-88, looked up, fragment)”, for which the collagen expression result in test [4] (setting [6]) and in test [5] (setting [6]) was “did not inhibit” throughout. The ASMA expression entry in test [4] and in test [5] was “did not inhibit” throughout.
As for `N#CC(=C(/N)Sc1ccccc1N)/C(C#N)=C(\N)Sc1ccccc1N` [Peptide U0126, U0126], in test [1], the ASMA expression entry is “unaffected; also recorded: little or no effect”, the Akt activation entry is reported as “little or no effect”, the ERK activation entry is reported as “blocked” and the JNK activation result was “little or no effect”. In test [1], the collagen expression entry is “blocked”, the tenascin-C expression entry is given as “inhibited; also recorded: blocked”, the ASMA entry is listed as “—” and the Ph-Akt entry is listed as “—”. Moreover, in test [1], the Ph-ERK result is listed as “↓”, the Ph-JNK entry is recorded as “—”, the Collagen entry is “↓” and the Tenascin-C entry was “↓”. In test [2], the ASMA expression entry is given as “unaffected; also recorded: little or no effect”, the Akt activation result is reported as “little or no effect”, the ERK activation result is “blocked” and the JNK activation entry was “little or no effect”. Besides, in test [2], the collagen expression result is “blocked”, the tenascin-C expression entry is listed as “inhibited; also recorded: blocked”, the ASMA entry is “—” and the Ph-Akt result is listed as “—”. In addition, in test [2], the Ph-ERK result was “↓”, the Ph-JNK result is listed as “—”, the Collagen result is listed as “↓” and the Tenascin-C entry is on record as “↓”.
Turning to “C: CSD subdomain C (96-101) synthesized in fusion with the Antennapedia internalization sequence (KYWFYR; also: fused to Antennapedia internalization sequence; UniProt Q03135 96-101, looked up, fragment)”, the “inhibition of collagen expression” value in test [4] (5 μM peptide) is on record as “approximately 50%”. In test [5], the “inhibition of ASMA expression” value is “approximately 50%”, the “inhibition of collagen expression” value is recorded as “approximately 50%” and the ASMA expression entry is “inhibited”.
As for `O=c1cc(N2CCOCC2)oc2c(-c3ccccc3)cccc12` [LY294002], in test [1], the ASMA expression result was “no effect”, the JNK activation result is listed as “no effect”, the ASMA entry is recorded as “—” and the Ph-Akt entry is “↓”. In test [1], the Ph-ERK entry is “↑”, the Ph-JNK result is recorded as “—”, the Collagen result is “↓” and the Tenascin-C result is reported as “↓”. In test [2], the JNK activation result is “no effect”, the ASMA result was “↓”, the Ph-Akt result is “↓” and the Ph-ERK entry is given as “↑”. Besides, in test [2], the Ph-JNK result is “—”, the Collagen result is recorded as “↓” and the Tenascin-C result is listed as “↓”.
Consider “BC: CSD subdomain BC (89-101) synthesized in fusion with the Antennapedia internalization sequence (FTTFTVTKYWFYR; also: fused to Antennapedia internalization sequence; UniProt Q03135 89-101, looked up, fragment)”, for which the eNOS activity entry in test [3] is “also inhibited”. Further, the collagen expression entry in test [4] (3 μM peptide) and in test [5] (3 μM peptide) was “completely inhibited” in each case. Besides, the “inhibition of ASMA expression” value in test [4] (5 μM peptide) and in test [5] was “about 80%” in each case. Also, the ASMA expression result in test [4] and in test [5] was “inhibited” in each case.

These data come from patent US8058227B2, “Method of treating fibrosis in a subject in need thereof comprising administering a composition comprising a CSD” (Medical University of South Carolina, priority 2006, dated 2011).
